Data taken from patent publication EP2892896B1 (Bristol-Myers Squibb Company, priority 2012, dated 2014).

molecular target: T1, human melanin concentrating hormone receptor (MCHR1) (Homo sapiens, UniProt Q99705, A5T/E4Q); experiment: Radioligand binding assay for assessment of MCHR1 activity; conditions: membranes from HEK-293 cells expressing a mutated (E4Q, A5T) hMCHR1 receptor; competition with 0.06 - 0.1 nM [Phe13, [125I]Tyr19]-MCH; 90 min
T1 construct: expressed in transfected cells; host or cells: HEK-293 (stably transfected), membranes
T1 sequence (Q99705 whole entry E4Q/A5T): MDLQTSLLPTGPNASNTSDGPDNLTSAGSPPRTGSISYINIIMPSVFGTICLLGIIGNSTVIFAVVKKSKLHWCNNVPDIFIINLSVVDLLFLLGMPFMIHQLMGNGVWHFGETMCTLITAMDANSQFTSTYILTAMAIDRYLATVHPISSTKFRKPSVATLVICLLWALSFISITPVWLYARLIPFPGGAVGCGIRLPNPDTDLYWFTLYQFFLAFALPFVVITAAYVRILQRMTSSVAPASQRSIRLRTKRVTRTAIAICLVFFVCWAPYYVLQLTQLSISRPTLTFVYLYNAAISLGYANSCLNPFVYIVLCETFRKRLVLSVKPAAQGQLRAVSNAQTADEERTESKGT
Method: Radioligand Binding Assay for Assessment of MCHR1 Activity
An in vitro binding assay was used to determine the compound Ki value or ability to antagonize binding of a peptide agonist to the human melanin concentrating hormone receptor (MCHR1). […] Binding experiments were carried out with 0.5-1.0 µg of membrane protein incubated in a total of 0.2 mL in 25 mM HEPES (pH 7.4) with 10 mM MgCl2, 2 mM EGTA, and 0.1% BSA (Binding Buffer) for 90 min. For competition binding assays, reactions were carried out in the presence of with 0.06 - 0.1 nM [Phe^13, [^125I]Tyr^19]-MCH and increasing concentrations of unlabeled test molecules. […] Filters were dried, 0.05 mL MicroScint 20 was added to each well and radioactivity was subsequently quantified by scintillation counting on a TOPCOUNT® microplate scintillation counter (Packard). Inhibitory constants were determined by nonlinear least squares analysis using a four parameter logistic equation.

Row | Structure (SMILES) | Ki [nM]
1 | COc1ccc(N2CCC(Oc3ccc(-c4ccccc4)cc3)C2=O)cc1OC (stereo not drawn) [Example 43] | 19
2 | Cc1cc(N2CCC(Oc3ccc(C4CC4)cc3)C2=O)ccc1OC[C@H](O)CS(C)(=O)=O (stereo partly drawn) [Example 97] | 79
3 | COc1cc(N2CCC(Oc3ccc(-c4ccc(F)cc4)cc3)C2=O)ccc1OC[C@@H](O)CS(C)(=O)=O (stereo partly drawn) [Example 63] | 38
4 | Cc1cc(N2CCC(Oc3ccc(-c4ccncc4)cc3)C2=O)ccc1OCC(C)(C)O (stereo not drawn) [Example 89] | 37
5 | COc1cc(N2CC[C@@H](Oc3ccc(OC(F)(F)F)cc3)C2=O)ccc1OCC(C)(C)O [Example 15] | 11
6 | COc1cc(N2CCC(Oc3ccc(-c4ccccc4)nc3)C2=O)ccc1OCC(C)(C)O (stereo not drawn) [Example 35] | 81
7 | CCS(=O)(=O)C[C@@H](O)COc1ccc(N2CCC(Oc3ccc(-c4ccc(F)cc4)cc3)C2=O)cc1OC (stereo partly drawn) [Example 54] | 21
8 | COc1cc(N2CCC(Oc3ccc(-c4ccccc4)cc3)C2=O)ccc1OCCS(C)(=O)=O (stereo not drawn) [Example 66] | 2
9 | COc1cc(N2CCC(Oc3ccc(-c4ccccc4)c(F)c3)C2=O)ccc1OCC(C)(C)O (stereo not drawn) [Example 30] | 12
10 | COc1cc(N2CCC(Oc3ccc(C4CC4)cc3)C2=O)ccc1OCCS(C)(=O)=O (stereo not drawn) [Example 70] | 7
11 | COc1cc(N2CCC(Oc3ccccc3C(F)(F)F)C2=O)ccc1OCC(C)(C)O (stereo not drawn) [Example 6] | 7000
12 | COc1cc(N2CCC(Oc3ccccc3Cl)C2=O)ccc1OCC(C)(C)O (stereo not drawn) [Example 1, 3-(2-Chlorophenoxy)-1-(4-(2-hydroxy-2-methylpropoxy)-3-methoxyphenyl)pyrrolidin-2-one] | 5000
13 | Cc1cc(N2CCC(Oc3ccc(C(F)(F)F)cc3)C2=O)ccc1OCCS(C)(=O)=O (stereo not drawn) [Example 112] | 31
14 | COc1cc(N2CCC(Oc3ccc(OC(F)(F)F)cc3)C2=O)ccc1OCC(C)(C)O (stereo not drawn) [Example 14] | 134
15 | COc1cc(N2CC[C@@H](Oc3ccc(C4CC4)cc3)C2=O)ccc1OCCS(C)(=O)=O [Example 71, (R)-3-(4-Cyclopropylphenoxy)-1-(3-methoxy-4-(2-(methylsulfonyl)ethoxy)phenyl)pyrrolidin-2-one] | 3
16 | COc1cc(N2CC[C@H](Oc3ccc(C4CC4)cc3)C2=O)ccc1OCCS(C)(=O)=O [Example 73] | 87
17 | COc1cc(N2CCC(Oc3ccc(OC(F)(F)F)cc3Cl)C2=O)ccc1OCC(C)(C)O (stereo not drawn) [Example 17] | 402
18 | COc1cc(N2CC=C(Oc3ccc(-c4ccccc4)cc3)C2=O)ccc1OCC(C)(C)O [Example 122] | 3
19 | CCS(=O)(=O)C[C@H](O)COc1ccc(N2CCC(Oc3ccc(OC(F)(F)F)cc3)C2=O)cc1OC (stereo partly drawn) [Example 50] | 197
20 | COc1cc(N2CCC(Oc3ccc(-c4cccnc4)cc3)C2=O)ccc1OCC(C)(C)O (stereo not drawn) [Example 36] | 67
21 | Cc1cc(N2CCC(Oc3ccc(CC(F)(F)F)cc3)C2=O)ccc1OCC(C)(C)O (stereo not drawn) [Example 81] | 22

Row | Structure (SMILES) | Ki [nM]
22 | Cc1cc(N2CC=C(Oc3ccc(C4CC4)cc3)C2=O)ccc1OCC(C)(C)O [Example 118] | 9
23 | COc1cc(N2CCC(Oc3ccc(C4CC4)cc3)C2=O)ccc1OCC(C)(C)O (stereo not drawn) [Example 22, 3-(4-Cyclopropylphenoxy)-1-(4-(2-hydroxy-2-methylpropoxy)-3-methoxyphenyl)pyrrolidin-2-one] | 23
24 | COc1cc(N2CCC(Oc3cccc(C(F)(F)F)c3)C2=O)ccc1OCC(C)(C)O (stereo not drawn) [Example 7] | 6000
25 | COc1cc(N2CCC(Oc3ccc(-c4ccccc4)cc3)C2=O)ccc1OC[C@H](O)CS(C)(=O)=O (stereo partly drawn) [Example 58, 3-(Biphenyl-4-yloxy)-1-(4-((S)-2-hydroxy-3-(methylsulfonyl)propoxy)-3-methoxyphenyl)pyrrolidin-2-one] | 9
26 | Cc1cc(N2CC=C(Oc3ccc(OC(F)(F)F)cc3)C2=O)ccc1OCC(C)(C)O [Example 117] | 25
27 | Cc1cc(N2CCC(Oc3ccc(-c4ccc(F)cc4)cc3)C2=O)ccc1OC[C@H](O)CS(C)(=O)=O (stereo partly drawn) [Example 96] | 22
28 | COc1cc(N2CCC(Oc3ccc(-c4ccccc4)cn3)C2=O)ccc1OCC(C)(C)O (stereo not drawn) [Example 34, 1-(4-(2-Hydroxy-2-methylpropoxy)-3-methoxyphenyl)-3-(5-phenylpyridin-2-yloxy)pyrrolidin-2-one] | 13
29 | CCS(=O)(=O)C[C@@H](O)COc1ccc(N2CCC(Oc3ccc(OC4CC4)cc3)C2=O)cc1OC (stereo partly drawn) [Example 56] | 71
30 | Cc1cc(N2CC[C@@H](Oc3ccc(OC(F)(F)F)cc3)C2=O)ccc1OCC(C)(C)O [Example 79] | 11
31 | Cc1cc(N2CC[C@H](Oc3ccc(-c4ccc(F)cc4)cc3)C2=O)ccc1OCCS(C)(=O)=O [Example 111] | 1740
32 | COc1cc(N2CCC(Oc3ccc(-c4ccncc4)cc3)C2=O)ccc1OCC(C)(C)O (stereo not drawn) [Example 37] | 73
33 | Cc1cc(N2CCC(Oc3ccc(-c4ccccc4)cc3)C2=O)ccc1OCC(C)(C)O (stereo not drawn) [Example 80] | 4
34 | COc1cc(N2CC[C@H](Oc3ccc(-c4ccccc4)cc3)C2=O)ccc1OCC(C)(C)O [Example 20] | 493
35 | COc1cc(N2CCC(Oc3ccc(-n4ccnc4)cc3)C2=O)ccc1OCC(C)(C)O (stereo not drawn) [Example 39] | 480
36 | CCS(=O)(=O)C[C@@H](O)COc1ccc(N2CCC(Oc3ccc(OC(F)(F)F)cc3)C2=O)cc1C (stereo partly drawn) [Example 94] | 714
37 | COc1cc(N2CC=C(Oc3ccc(C4CC4)cc3)C2=O)ccc1OCC(C)(O)CO (stereo not drawn) [Example 119] | 4
38 | Cc1cc(N2CCC(Oc3ccc(C4CC4)cc3)C2=O)ccc1OCC(C)(C)O (stereo not drawn) [Example 82] | 11
39 | COc1cc(N2CC=C(Oc3ccc(C4CC4)cc3)C2=O)ccc1OC[C@H](O)C1CC1 [Example 121] | 2
40 | Cc1cc(N2CCC(Oc3ccc(OC(F)(F)F)cc3)C2=O)ccc1OCC(C)(C)O (stereo not drawn) [Example 77] | 15
41 | Cc1cc(N2CC[C@H](Oc3ccc(C4CC4)cc3)C2=O)ccc1OCC(C)(C)O [Example 83] | 168
42 | Cc1cc(N2CCC(Oc3ccc(-c4ccccc4)cc3)C2=O)ccc1OCCS(C)(=O)=O (stereo not drawn) [Example 104] | 1
